This is an account of results in US8937064B2, “Pyrazolo[1,5-a]pyrimidines useful as JAK2 inhibitors” (Vertex Pharmaceuticals Incorporated, priority 2007, dated 2015).

The structures appear in SMILES notation. pKi: −log10 of the molar value.

The target in one assay is JAK-2 enzyme (Homo sapiens, UniProt O60674). Nature of the assay: JAK2 Inhibition Assay.
JAK-2 enzyme, sequence (O60674 whole entry): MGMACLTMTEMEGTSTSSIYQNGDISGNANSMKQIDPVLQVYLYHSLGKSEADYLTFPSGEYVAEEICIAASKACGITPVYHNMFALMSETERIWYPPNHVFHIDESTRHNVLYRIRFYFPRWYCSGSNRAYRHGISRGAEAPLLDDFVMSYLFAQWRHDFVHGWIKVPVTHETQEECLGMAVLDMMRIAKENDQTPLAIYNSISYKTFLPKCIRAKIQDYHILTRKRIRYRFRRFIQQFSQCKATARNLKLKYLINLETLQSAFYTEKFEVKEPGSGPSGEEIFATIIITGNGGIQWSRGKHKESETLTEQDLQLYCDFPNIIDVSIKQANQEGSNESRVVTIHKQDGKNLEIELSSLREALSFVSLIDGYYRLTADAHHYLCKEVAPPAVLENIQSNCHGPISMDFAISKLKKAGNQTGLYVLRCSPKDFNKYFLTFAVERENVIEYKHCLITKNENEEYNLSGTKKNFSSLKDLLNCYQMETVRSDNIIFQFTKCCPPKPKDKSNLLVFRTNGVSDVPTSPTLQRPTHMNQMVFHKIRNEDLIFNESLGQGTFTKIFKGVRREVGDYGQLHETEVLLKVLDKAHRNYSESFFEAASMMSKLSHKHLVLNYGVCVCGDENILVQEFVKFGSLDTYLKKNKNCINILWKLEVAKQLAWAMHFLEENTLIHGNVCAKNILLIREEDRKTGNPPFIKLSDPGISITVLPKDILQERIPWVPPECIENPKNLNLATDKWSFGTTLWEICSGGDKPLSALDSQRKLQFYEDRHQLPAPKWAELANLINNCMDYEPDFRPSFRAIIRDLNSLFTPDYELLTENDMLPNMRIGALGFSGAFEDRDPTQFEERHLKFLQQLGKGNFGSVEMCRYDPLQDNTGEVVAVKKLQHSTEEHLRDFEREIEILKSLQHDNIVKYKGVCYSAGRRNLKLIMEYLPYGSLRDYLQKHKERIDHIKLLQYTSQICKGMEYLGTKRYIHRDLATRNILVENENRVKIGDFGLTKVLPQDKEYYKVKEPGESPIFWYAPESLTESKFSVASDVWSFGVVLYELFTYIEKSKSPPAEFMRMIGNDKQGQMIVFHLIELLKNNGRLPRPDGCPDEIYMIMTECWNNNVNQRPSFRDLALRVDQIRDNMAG
Conditions: not given
`C[C@H](Nc1cc(-c2c(N)nn3cccnc23)nc(O)n1)c1ccc(F)cc1` [Compound 161]: the pKi was > 8.00.

As to `C[C@H](Nc1cc(-c2cnn3cccnc23)nc(NC(=O)CCN2CCCC2=O)n1)c1ccc(F)cc1F` [Compound 185], the pKi is > 8.00.

As for `C[C@@H](Nc1cc(-c2cnn3cccnc23)ncn1)c1ccc(Cl)cc1` [Compound 146], the pKi is 7.00 to 8.00.

Regarding `Nc1nn2cccnc2c1-c1cc(NCc2ccc(C(F)(F)F)cc2F)ncn1` [Compound 46], the pKi is > 8.00.

As for `C[C@H](Nc1cc(-c2c(N)nn3cccnc23)nc(O)n1)c1ccc(F)cc1F` [Compound 131], the pKi was > 8.00.

With `CC#CC(C)Oc1nc(N[C@@H](C)c2ccc(F)cc2)cc(-c2c(N)nn3cccnc23)n1` (stereo partly shown) [Compound 181], the pKi is 7.00 to 8.00.

As for `CCN(CC)CCOc1nc(N[C@@H](C)c2ccc(F)cc2F)cc(-c2cnn3cccnc23)n1` [Compound 208], the pKi is > 8.00.

Regarding `C[C@H](Nc1cc(-c2c(N)nn3cccnc23)nc(OCC2CCC2)n1)c1ccc(F)cc1` [Compound 148], the pKi is 7.00 to 8.00.

As to `C[C@H](Nc1cc(-c2c(N)nn3cccnc23)nc(N2CC[C@H](F)C2)n1)c1ccc(F)cc1` [Compound 191], the pKi was 7.00 to 8.00.

`N#Cc1cccc(C(=O)Nc2ccnc(-c3cnn4cccnc34)c2)c1` [Compound 230] showed a pKi of 6.30 to 7.00.

`Nc1nn2cccnc2c1-c1cc(OC(c2ccccc2)C2CC2)ncn1` (stereo not shown) [Compound 66] gave a pKi of 5.30 to 6.30.

The molecule `C=CCCCOc1nc(N[C@@H](C)c2ccc(F)cc2)cc(-c2c(N)nn3cccnc23)n1` [Compound 182] had a pKi of 7.00 to 8.00.

Turning to `CCC[C@@H](Nc1cc(-c2c(N)nn3cccnc23)ncn1)c1ccc(F)c(F)c1` [Compound 97], the pKi is 7.00 to 8.00.

`C[C@H](Nc1cc(-c2cnn3cccnc23)nc(NC(=O)CN2CCOCC2)n1)c1ccc(F)cc1F` [Compound 186]: the pKi was > 8.00.

For the molecule `CCC[C@H](Nc1cc(-c2cnn3cccnc23)ncn1)c1ccc(F)cc1F` [Compound 122], the pKi was > 8.00.

As for `CC(C)NCCOc1nc(N[C@@H](C)c2ccc(F)cc2F)cc(-c2cnn3cccnc23)n1` [Compound 207], the pKi is > 8.00.

With `COCCOc1nc(N[C@@H](C)c2ccc(F)cc2F)cc(-c2cnn3cccnc23)n1` [Compound 196], the pKi is > 8.00.

For the molecule `COCCNc1nc(N[C@@H](C)c2ccc(F)cc2)cc(-c2c(N)nn3cccnc23)n1` [Compound 119], the pKi is > 8.00.

For the molecule `COCC(=O)Nc1nc(N[C@@H](C)c2ccc(F)cc2F)cc(-c2cnn3cccnc23)n1` [Compound 187], the negative logarithm of the Ki (pKi) is > 8.00.

Turning to `C[C@H](Nc1cc(-c2c(N)nn3cccnc23)ncn1)c1ccc(F)cc1Cl` [Compound 80], the pKi is > 8.00.

Take `C[C@H](Nc1ccnc(-c2cnn3cccnc23)n1)c1ccc(Cl)cc1` [Compound 226]: the pKi was 6.30 to 7.00.

Take `C[C@H](c1ccccc1)N(C)c1cc(-c2c(N)nn3cccnc23)ncn1` [Compound 20]: the pKi is 7.00 to 8.00.

On to `C=C(C)COc1nc(N[C@@H](C)c2ccc(F)cc2)cc(-c2c(N)nn3cccnc23)n1` [Compound 175], for which the pKi was > 8.00.

In the next assay the target is T1, JAK3 (Homo sapiens, UniProt P52333).
T1 sequence (P52333 1-1124): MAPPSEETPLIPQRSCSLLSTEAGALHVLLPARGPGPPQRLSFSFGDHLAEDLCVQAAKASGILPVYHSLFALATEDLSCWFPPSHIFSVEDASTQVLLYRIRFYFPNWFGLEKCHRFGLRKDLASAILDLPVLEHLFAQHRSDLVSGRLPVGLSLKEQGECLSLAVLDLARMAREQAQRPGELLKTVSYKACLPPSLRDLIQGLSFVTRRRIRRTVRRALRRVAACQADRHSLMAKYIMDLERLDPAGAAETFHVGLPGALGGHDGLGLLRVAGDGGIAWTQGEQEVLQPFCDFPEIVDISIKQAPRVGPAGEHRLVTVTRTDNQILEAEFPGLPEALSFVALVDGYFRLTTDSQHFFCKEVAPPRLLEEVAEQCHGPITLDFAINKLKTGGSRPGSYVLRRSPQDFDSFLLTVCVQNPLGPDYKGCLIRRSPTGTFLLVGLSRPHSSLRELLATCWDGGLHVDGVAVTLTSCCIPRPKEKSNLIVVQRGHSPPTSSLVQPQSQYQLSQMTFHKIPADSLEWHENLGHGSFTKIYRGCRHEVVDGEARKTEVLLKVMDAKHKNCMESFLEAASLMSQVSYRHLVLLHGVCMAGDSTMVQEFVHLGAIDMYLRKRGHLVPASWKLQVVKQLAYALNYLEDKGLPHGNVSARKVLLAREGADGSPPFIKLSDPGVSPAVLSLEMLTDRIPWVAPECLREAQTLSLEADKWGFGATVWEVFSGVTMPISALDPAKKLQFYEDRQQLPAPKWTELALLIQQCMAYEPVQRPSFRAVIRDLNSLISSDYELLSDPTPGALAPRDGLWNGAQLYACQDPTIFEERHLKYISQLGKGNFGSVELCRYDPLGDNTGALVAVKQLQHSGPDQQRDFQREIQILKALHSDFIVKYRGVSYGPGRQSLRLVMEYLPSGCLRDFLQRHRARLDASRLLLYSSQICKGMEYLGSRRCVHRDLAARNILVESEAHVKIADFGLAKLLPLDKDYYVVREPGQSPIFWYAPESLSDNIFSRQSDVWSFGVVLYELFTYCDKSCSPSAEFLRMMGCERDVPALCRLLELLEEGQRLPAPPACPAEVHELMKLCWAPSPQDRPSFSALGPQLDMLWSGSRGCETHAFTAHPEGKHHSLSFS
Kind of assay: JAK3 Inhibition Assay. The class given is biochemical. The following applies: 1 nM JAK3, 1 μM poly(Glu)4Tyr, 5 μM ATP, 25° C., 33P incorporation.
For `C[C@H](Nc1cc(-c2c(N)nn3cccnc23)nc(O)n1)c1ccc(F)cc1` [Compound 161], the pKi was 7.00 to 8.00.

Regarding `C[C@H](Nc1cc(-c2cnn3cccnc23)nc(NC(=O)CCN2CCCC2=O)n1)c1ccc(F)cc1F` [Compound 185], the pKi was 6.30 to 7.00.

With `C[C@@H](Nc1cc(-c2cnn3cccnc23)ncn1)c1ccc(Cl)cc1` [Compound 146], the negative-log Ki (pKi) is 5.30 to 6.30.

In turn, `Nc1nn2cccnc2c1-c1cc(NCc2ccc(C(F)(F)F)cc2F)ncn1` [Compound 46] had a pKi of 7.00 to 8.00.

Turning to `C[C@H](Nc1cc(-c2c(N)nn3cccnc23)nc(O)n1)c1ccc(F)cc1F` [Compound 131], the pKi is 7.00 to 8.00.

The molecule `CC#CC(C)Oc1nc(N[C@@H](C)c2ccc(F)cc2)cc(-c2c(N)nn3cccnc23)n1` (stereo partly shown) [Compound 181] showed a pKi of 6.30 to 7.00.

In turn, `CCN(CC)CCOc1nc(N[C@@H](C)c2ccc(F)cc2F)cc(-c2cnn3cccnc23)n1` [Compound 208] gave a pKi of 7.00 to 8.00.

For `C[C@H](Nc1cc(-c2c(N)nn3cccnc23)nc(OCC2CCC2)n1)c1ccc(F)cc1` [Compound 148], the pKi was 6.30 to 7.00.

Regarding `C[C@H](Nc1cc(-c2c(N)nn3cccnc23)nc(N2CC[C@H](F)C2)n1)c1ccc(F)cc1` [Compound 191], the pKi was 6.30 to 7.00.

With `N#Cc1cccc(C(=O)Nc2ccnc(-c3cnn4cccnc34)c2)c1` [Compound 230], the pKi is 5.30 to 6.30.

With `Nc1nn2cccnc2c1-c1cc(OC(c2ccccc2)C2CC2)ncn1` (stereo not shown) [Compound 66], the pKi is < 5.30.

In turn, `C=CCCCOc1nc(N[C@@H](C)c2ccc(F)cc2)cc(-c2c(N)nn3cccnc23)n1` [Compound 182] had a pKi of 6.30 to 7.00.

`CCC[C@@H](Nc1cc(-c2c(N)nn3cccnc23)ncn1)c1ccc(F)c(F)c1` [Compound 97]: the pKi is 6.30 to 7.00.

Regarding `C[C@H](Nc1cc(-c2cnn3cccnc23)nc(NC(=O)CN2CCOCC2)n1)c1ccc(F)cc1F` [Compound 186], the pKi was 6.30 to 7.00.

As to `CCC[C@H](Nc1cc(-c2cnn3cccnc23)ncn1)c1ccc(F)cc1F` [Compound 122], the pKi was 7.00 to 8.00.

In turn, `CC(C)NCCOc1nc(N[C@@H](C)c2ccc(F)cc2F)cc(-c2cnn3cccnc23)n1` [Compound 207] had a pKi of 7.00 to 8.00.

Take `COCCOc1nc(N[C@@H](C)c2ccc(F)cc2F)cc(-c2cnn3cccnc23)n1` [Compound 196]: the negative logarithm of the Ki (pKi) is 7.00 to 8.00.

Consider `COCCNc1nc(N[C@@H](C)c2ccc(F)cc2)cc(-c2c(N)nn3cccnc23)n1` [Compound 119], for which the pKi was 7.00 to 8.00.

`COCC(=O)Nc1nc(N[C@@H](C)c2ccc(F)cc2F)cc(-c2cnn3cccnc23)n1` [Compound 187] showed a pKi of 7.00 to 8.00.

`C[C@H](Nc1cc(-c2c(N)nn3cccnc23)ncn1)c1ccc(F)cc1Cl` [Compound 80]: the pKi is 7.00 to 8.00.

Take `C[C@H](Nc1ccnc(-c2cnn3cccnc23)n1)c1ccc(Cl)cc1` [Compound 226]: the pKi is 5.30 to 6.30.

With `C[C@H](c1ccccc1)N(C)c1cc(-c2c(N)nn3cccnc23)ncn1` [Compound 20], the pKi is 6.30 to 7.00.

`C=C(C)COc1nc(N[C@@H](C)c2ccc(F)cc2)cc(-c2c(N)nn3cccnc23)n1` [Compound 175] showed a pKi of 6.30 to 7.00.

The pKi is the Ki on a negative log10 scale, so that one unit is a factor of ten. High values mean a low Ki, low ones a high Ki.
